Source: patent publication US20240302280A1, “PREPARATION METHOD AND APPLICATION OF VISCOSITY FLUORESCENT PROBE” (Zhengzhou University of Light Industry, priority 2023, published 2024)

Assays:
[1] = system: HeLa cells; assay: MTT cytotoxicity experiment; type: cell-based; details: 0-20 μM probe, 24 hours
[2] = system: HeLa cells; assay: Cell imaging of response to viscosity (monensin-treated cells); type: cell-based; details: probe 10 μM, 30 min, λex=360 nm
Experimental: FIG. 9 is a fluorescence image of Hela cells; (a-c) HeLa cells were cultured with TzAr-Nap-OH (10 μM) for 30 minutes; (d-f) HeLa cells were treated with monensin (Mo) and incubated with the TzAr-Nap-OH probe for 30 minutes; λex=360 nm, slit=5 nm, scale bar=20 μm.
Images a-c were obtained by treating HeLa cells with TzAr-Nap-OH (10 μM) for 30 mins. HeLa cells were first treated with monensin to increase cell viscosity, and then treated with TzAr-Nap-OH (10 μM) to obtain images d-f.

[3] = Effect of solution pH on probe fluorescence in PBS/THF (4/1); type: physicochemical; details: pH range 1.64 to 11.45
Experimental: 20 μL of the fluorescent probe stock solution were taken and added dropwise into a PBS/THF (4/1) system, resulting in a final volume of 2 mL.

[4] = Effect of interfering substances on probe fluorescence in PBS/THF (4/1); type: physicochemical; details: 10 μM interfering substances
Experimental: 20 μL of the fluorescent probe stock solution were taken and added dropwise into the PBS/THF (4/1) system, into which 10 μM of other interfering substance solutions were added dropwise, resulint in a final volume is 2 mL. Other interfering substances had little effect on the fluorescence intensity of TzAr-Nap-OH.

[5] = Spectral response of the probe to solution viscosity (glycerol/MeOH); type: physicochemical; details: viscosity increased from 1.4 cp to 955 cp by glycerol/MeOH volume ratio
Text: Therefore, it may be concluded that the fluorescence intensity of TzAr-Nap-OH may be used as a reliable indicator for a quantitative viscosity sensor.

change of fluorescence intensity with pH [3]: did not change significantly
SMILES: Oc1ccc2cc(/C=C/c3nc(-c4ccccc4)nc(-c4ccccc4)n3)ccc2c1 [TzAr-Nap-OH]
survival rate (cell viability) [1]: over 81%
fluorescence intensity of monensin-treated cells versus normal cells [2]: significantly higher
effect of other interfering substances on fluorescence intensity [4]: little effect
increase of fluorescence intensity at 520 nm [5]: ~15 times
